For one assay, the system named is 11β-HSD1 protein. As to the kind of experiment: Immunoblot of 11β-HSD1 protein in prostate cancer cell lines. It counts as cell-based, human. The note with it: AR-expressing prostate cancer cell lines. On the procedure: For protein analysis, immunoblots were performed as described previously. Li et al., J Clin Endocrinol Metab 98, E1189-1197 (2013). Briefly, total cellular protein was extracted with ice cold RIPA lysis buffer (Sigma-Aldrich) containing protease inhibitors (Roche). 30-50 μg protein was separated by 8% SDS-PAGE gel and then transferred to a nitrocellulose membrane (Millipore). After incubating with the anti-11β-HSD2 antibody (Santa Cruz; 1:3000), anti-11β-HSD1 antibody (Santa Cruz; 1:1000), GR antibody (BD Biosciences; 1:1000), anti-Erlin-2 antibody (Cell Signaling Technology: 1:1000) or anti-AMFR antibody (Proteintech; 1:1000) overnight at 4° C., the appropriate secondary antibody was incubated for 1 hour at room temperature. The chemiluminescent detection system (Thermo Scientific) was used to detect the bands with peroxidase activity. An anti-β-actin antibody (Sigma-Aldrich; 1:5000) was used as a control for sample loading.
(In general: Immunoblotting shows a protein as a band on a membrane.)

Assay [1] relates to LAPC4 human prostate cancer cell line. As to the kind of experiment: Cell line cortisol metabolism: conversion of [3H]-cortisol to cortisone, HPLC.
Assay [2] relates to LAPC4 and VCaP CRPC xenografts. Description: Mouse xenograft studies: tumor growth and progression-free survival. Format: in vivo. On the procedure: All mouse studies were performed under a protocol approved by the Institutional Animal Care and Use Committee (IACUC) of the Cleveland Clinic Lerner Research Institute. All NSG male mice (6-8 weeks old) were purchased from the Jackson Laboratory and the number of mice used in this study was based on previously published mouse xenograft studies by our lab that determined effects of steroid pathway inhibition/augmentation on xenograft growth. Mice were surgically orchiectomized and implanted with DHEA pellets to mimic human adrenal DHEA production in patients with CRPC. 1 week later, mice were prepared for cell injections.
For the evaluation of the 11β-HSD2 role in reversing enzalutamide resistance, either 10^7 vector control or 10^7 11β-HSD2 overexpressing LAPC4 or VCaP cells (100 μl in 50% matrigel and 50% growth media) were subcutaneously injected into mice. When tumors reached 100 or 150 mm^3 (length×width×height×0.52), for LAPC4 and VCaP xenografts, respectively, the mice were arbitrarily divided into 2 groups each for vector and 11β-HSD2 overexpressing cells: Enz diet 62.5 mg/kg and or chow alone groups. Tran et al., Science 324, 787-790 (2009). Based on the daily chow consumption, approximately 0.3125 mg Enz was consumed per mouse per day. Enz in chow and chow alone were obtained from Medivation. Tumor volume was measured every other day, and progression-free survival was assessed as time to 3-fold (LAPC4) or 1.5-fold (VCaP) increase in tumor volume (from 100 or 150 mm^3) from the time Enz or chow alone was initiated. The number of mice in the LAPC4 Vector/Ctrl, Vector/Enz, 11β-HSD2/Ctrl and 11β-HSD2/Enz groups were 9, 9, 10, and 11, respectively. The number of mice in the VCaP Vector/Ctrl, Vector/Enz, 11β-HSD2/Ctrl and 11β-HSD2/Enz groups were 6, 6, 5, and 8, respectively. Numbers of mice in each treatment group were determined by those that survived surgical procedures and had reached a tumor volume to initiate treatment.
For evaluation of the role of AMFR in reversing enzalutamide resistance, either 10^7 control or 10^7 AMFR knockdown LAPC4 cells (100 μl in 50% matrigel and 50% growth media) were subcutaneously injected into mice. The remaining procedures were performed as described above. The number of mice in the LAPC4 shCtrl/Enz and shAMFR/Enz groups were 6, and 10, respectively. Protein levels of 11β-HSD2 in the shCtrl and control or shAMFR LAPC4 xenografts were analyzed by immunoblot. Briefly, ˜40-50 mg xenograft tissue was minced into pieces and then added into soft tissue homogenizing CK14 tubes (Betin Technologies) with 150 μl RIPA buffer containing protease inhibitors. Xenograft tissues were homogenized with a homogenizer (Minilys, Betin Technologies) 6 times (40 seconds each time) at the highest speed. Tubes were incubated on the ice for 5-10 minutes between each homogenization to cool lysates. The lysates were then centrifuged for 30 minutes at 15,000×g and the supernatants were used for immunoblot analysis.

The test system of a further assay is 11β-HSD2 protein. Description: Human prostate cancer tissue studies, 11β-HSD2 protein. The conditions noted are these: tissues from patients with prostate cancer treated with enzalutamide (in patients or ex vivo 10 μM, 7-8 days). On the procedure:
All deidentified human tissues were obtained using institutional review board (IRB)-approved protocols. Pre- and post-Enz lymph node tissues were obtained from CT-guided biopsy of metastatic CRPC from Cleveland Clinic (Patient #3) and Dana-Farber Cancer Institute (Patient #4). Pathologic identification of tumor was done by an expert prostate cancer pathologist. Staining of tissues from Patient #4 was done with frozen section slides that were air dried at room temperature for 5 minutes, followed by rehydration with PBS. Immunofluorescence staining was performed as described above. H&E staining was completed by the imagine core of Biomedical Engineering Department in Lerner Research Institute of Cleveland Clinic.
Paired pre-Enz treatment and post-Enz treatment tissues from Patient #1 and Patient #2 were obtained from patients with localized prostate cancer treated with Enz plus ADT for 2 months prior to the second biopsy in a clinical trial (NCT02064582) at the University of Texas Southwestern Medical Center. Biopsies were obtained using image-guidance with a Koelis Urostation. The biopsy cores were minced into pieces and then added into Soft tissue homogenizing CK14 tubes (Betin Technologies) with 100 μl 6M Urea buffer containing protease inhibitors (Sigma Aldrich). Tissue homogenization and immunoblot analysis were performed as described previously. […]

Setting [3] is: LAPC4 xenografts with forced 11β-HSD2 expression, enzalutamide in chow.
Setting [4] is: enzalutamide-treated LAPC4 xenografts with stable AMFR knockdown.

With `CNC(=O)c1ccc(N2C(=S)N(c3ccc(C#N)c(C(F)(F)F)c3)C(=O)C2(C)C)cc1F` [enzalutamide], the 11β-HSD1 protein entry with 11β-HSD1 protein is on record as “no consistent effect on 11β-HSD1 was detectable”. In assay [1] (long enzalutamide exposure (36 days), LAPC4, cells and media), the “cortisol levels / conversion of [3H]-cortisol to cortisone” value was “sustains cortisol levels by retarding conversion to cortisone in cells and media”. In assay [1] (short term Enz treatment (24 hours), LAPC4), the cortisol metabolism result was “does not affect cortisol metabolism”. Also, the xenograft tumor growth entry is listed as “growth of Vector xenografts through enzalutamide therapy” in assay [2] (LAPC4 Vector xenografts, orchiectomized mice with DHEA, enzalutamide in chow); “significantly reversed enzalutamide-resistant growth” in assay [2] (setting [3]); “suppressed xenograft growth” in assay [2] (setting [4]). Moreover, the progression-free survival entry in assay [2] (setting [3]) and in assay [2] (setting [4]) was “prolonged progression-free survival” throughout. For the same compound, the “sensitivity of xenograft to treatment” value in assay [2] (VCaP xenografts with 11β-HSD2 expression) was “Reinstatement of sensitivity to enzalutamide treatment”. Moreover, in the assay on 11β-HSD2 protein, the “patient tissues with loss of 11β-HSD2 with treatment” value is recorded as “Nine of 11”.
